{"source": "patent US12441739B2", "about": "“Glucagon receptor antagonist and use thereof” (LANZHOU UNIVERSITY, priority 2021, dated 2025)", "molecular_target": "T1, human glucagon receptor (hGCGR) (Homo sapiens, UniProt P47871)", "T1 construct": "host or cells: HEK293", "T1 sequence (P47871 26-477)": "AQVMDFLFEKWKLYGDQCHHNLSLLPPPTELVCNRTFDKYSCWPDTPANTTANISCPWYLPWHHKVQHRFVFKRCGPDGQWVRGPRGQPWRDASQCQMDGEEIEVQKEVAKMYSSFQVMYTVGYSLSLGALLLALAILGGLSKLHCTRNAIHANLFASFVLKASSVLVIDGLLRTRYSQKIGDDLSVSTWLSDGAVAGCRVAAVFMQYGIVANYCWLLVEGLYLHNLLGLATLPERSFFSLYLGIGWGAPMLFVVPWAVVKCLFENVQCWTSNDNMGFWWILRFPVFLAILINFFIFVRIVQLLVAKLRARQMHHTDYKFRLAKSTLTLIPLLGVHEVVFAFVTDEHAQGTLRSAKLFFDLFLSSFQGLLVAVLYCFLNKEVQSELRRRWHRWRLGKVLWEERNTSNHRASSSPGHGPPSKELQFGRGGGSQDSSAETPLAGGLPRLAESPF", "assay": "HTRF second messenger cAMP response experiment (called cell viability test) in HEK293 cells with glucagon peptide segment", "assay_type": "cell-based", "protocol": "In order to determine the antagonistic activity of the compound A on the glucagon receptor in the above embodiments, a cell viability test is carried out. The specific implementation is as follows.\nA known human glucagon receptor (hGCGR) antagonist drug is selected as a positive control, and the compound A in the above embodiments, a glucagon peptide segment (that is, human full-length glucagon), and human embryonic kidney cells containing target receptor molecules are mixed. The glucagon peptide segment binds to hGCGR to activate the hGCGR signaling pathway and release the second messenger cAMP. The compound A acts as an antagonist to inhibit the activity of hGCGR.\nIn an exemplary embodiment, a known hGCGR antagonist drug (L-168,049) is selected as a positive control. […] In addition, in view of the human glucagon receptor on the cell membrane of human embryonic kidney cells HEK293, HEK293 is used to test the drug activity of the human glucagon antagonist. In this embodiment, different concentrations of compound A of the present disclosure and the positive control are respectively mixed with glucagon peptide segments and HEK293 cells, the second messenger cAMP is detected through homogeneous time resolved fluorescence (HTRF), and a half maximal inhibitory concentration value of each compound is calculated according to the intensity value of HTRF.\n(§1) In an exemplary embodiment, the activity of the compound A is tested using the HTRF technique. Specifically, after activation of the glucagon receptor by the glucagon peptide segment, the second messenger cAMP is released from the glucagon receptor cells, the second messenger cAMP may be detected by HTRF, and the half maximal inhibitory concentration (IC50) of the tested compound may be calculated according to the fluorescence intensity.\nIn an exemplary embodiment, 11 identical concentration gradients are set for the compounds A1 and A2 respectively. The activities of the compounds A1 and A2 are determined by the HTRF second messenger cAMP response experiment in triplicate.\nStep S910. Select an antagonist drug of hGCGR as a positive control, and mix each target drug small molecule, a glucagon peptide segment, and human embryonic kidney cells containing the target receptor molecule. The glucagon peptide segment binds to hGCGR to activate the hGCGR signaling pathway and release the second messenger cAMP. The target drug molecule acts as an antagonist to inhibit the activity of hGCGR.\nIn an exemplary embodiment, an antagonist drug (such as L-168,049) of hGCGR is selected as a positive control. In addition, in view of the human glucagon receptor on the cell membrane of human embryonic kidney cells (such as HEK293), HEK293 may be used to test the drug activity of the human glucagon antagonist. The target drug small molecule, the glucagon peptide segment, and the HEK293 cells containing the target receptor molecule are mixed. The glucagon peptide segment is used to bind to hGCGR to activate the hGCGR signaling pathway and promote the release of the second messenger cAMP. The target drug molecule acts as an antagonist to inhibit the activity of hGCGR.\nStep S920. Detect the second messenger cAMP through HTRF, and determine a half maximal inhibitory concentration value of each target drug small molecule according to an intensity value of HTRF.\nas §1, with “each target drug small molecule (such as 30 target drug small molecules shown in Table 2)” for “the compound A”, “tested by” for “tested”, “drug molecule” for “tested compound”, “intensity. […]” for “intensity.”", "note": "Values joined by “and” are separate entries in the source; they are usually repeats but may differ in a detail not shown here. Identical values can stand only once.", "data": [{"compound": "CCCOc1ccc(Br)cc1-c1cc(-c2ccc(Cl)cc2)[nH]c1-c1ccncc1", "note": "[L-168,049, 4-[3-(5-bromo-2-propoxyphenyl)-5-(4-chlorophenyl)-1H-pyrrol-2-yl]pyridine, reference compound]", "values": [{"measurement": "IC50", "setting": "HEK293, cAMP HTRF, 11 concentrations, L-168,049 positive control per group of ten compounds", "value": "61.5 nM and 42.2 nM"}, {"measurement": "Inhibition percentage", "setting": "concentration gradient LogM −5, HEK293 cells, glucagon peptide segment, HTRF cAMP, triplicate columns", "value": "100.4281% and 100.5604% and 100.8895%"}, {"measurement": "Inhibition percentage", "setting": "concentration gradient LogM −5, triplicate, HEK293, cAMP HTRF", "value": 100.4281, "unit": "percentage"}, {"measurement": "Inhibition percentage", "setting": "concentration gradient LogM −5.477121, HEK293 cells, glucagon peptide segment, HTRF cAMP, triplicate columns", "value": "98.6132% and 96.62% and 98.1315%"}, {"measurement": "Inhibition percentage", "setting": "concentration gradient LogM −5.477121, triplicate, HEK293, cAMP HTRF", "value": 98.6132, "unit": "percentage"}, {"measurement": "Inhibition percentage", "setting": "concentration gradient LogM −5.954243, HEK293 cells, glucagon peptide segment, HTRF cAMP, triplicate columns", "value": "98.05% and 95.17% and 94.46%"}, {"measurement": "Inhibition percentage", "setting": "concentration gradient LogM −5.954243, triplicate, HEK293, cAMP HTRF", "value": 98.05, "unit": "percentage"}, {"measurement": "Inhibition percentage", "setting": "concentration gradient LogM −6.431364, HEK293 cells, glucagon peptide segment, HTRF cAMP, triplicate columns", "value": "93.05% and 91.9% and 88.0059%"}, {"measurement": "Inhibition percentage", "setting": "concentration gradient LogM −6.431364, triplicate, HEK293, cAMP HTRF", "value": 93.05, "unit": "percentage"}, {"measurement": "Inhibition percentage", "setting": "concentration gradient LogM −6.908485, HEK293 cells, glucagon peptide segment, HTRF cAMP, triplicate columns", "value": "89.46% and 74.79% and 78.16%"}, {"measurement": "Inhibition percentage", "setting": "concentration gradient LogM −6.908485, triplicate, HEK293, cAMP HTRF", "value": 89.46, "unit": "percentage"}, {"measurement": "Inhibition percentage", "setting": "concentration gradient LogM −7.385606, HEK293 cells, glucagon peptide segment, HTRF cAMP, triplicate columns", "value": "46.69% and 16.31%"}, {"measurement": "Inhibition percentage", "setting": "concentration gradient LogM −7.385606, triplicate, HEK293, cAMP HTRF", "value": 47.8261, "unit": "percentage"}, {"measurement": "Inhibition percentage", "setting": "concentration gradient LogM −7.862728, HEK293 cells, glucagon peptide segment, HTRF cAMP, triplicate columns", "value": "33.52% and 15.3532%"}, {"measurement": "Inhibition percentage", "setting": "concentration gradient LogM −7.862728, triplicate, HEK293, cAMP HTRF", "value": 28.98, "unit": "percentage"}, {"measurement": "Inhibition percentage", "setting": "concentration gradient LogM −8.339849, HEK293 cells, glucagon peptide segment, HTRF cAMP, triplicate columns", "value": "−19.5336% and −9.209%"}, {"measurement": "Inhibition percentage", "setting": "concentration gradient LogM −8.339849, triplicate, HEK293, cAMP HTRF", "value": 3.941, "unit": "percentage"}, {"measurement": "Inhibition percentage", "setting": "concentration gradient LogM −8.81697, triplicate, HEK293, cAMP HTRF", "value": "−8.051", "unit": "percentage"}, {"measurement": "Inhibition percentage", "setting": "concentration gradient LogM −9.294091, HEK293 cells, glucagon peptide segment, HTRF cAMP, triplicate columns", "value": "19.0859% and −1.84%"}, {"measurement": "Inhibition percentage", "setting": "concentration gradient LogM −9.294091, triplicate, HEK293, cAMP HTRF", "value": "−3.763", "unit": "percentage"}, {"measurement": "Inhibition percentage", "setting": "concentration gradient LogM −9.771213, HEK293 cells, glucagon peptide segment, HTRF cAMP, triplicate columns", "value": "−1.911% and 6.132% and 1.646%"}, {"measurement": "Inhibition percentage", "setting": "concentration gradient LogM −9.771213, triplicate, HEK293, cAMP HTRF", "value": "−1.911", "unit": "percentage"}]}]}
